Source: patent US4652638A, “3-O-acyl-4"-deoxydesmycosin derivatives” (Toyo Jozo Kabushiki Kaisha, priority 1983, dated 1987)
Converted amounts (≈) assume the structure as drawn. Where two headings read alike, the source gives them in different places.

Tests used:
Test in all cases: MIC (minimum inhibitory concentration)
Format in all cases: cell-based
[1] = tested on: Pseudomonas aeruginosa IAM 1095; settings: IAM1095
[2] = tested on: Staphylococcus aureus 0119*; settings: Staphylococcus aureus
[3] = tested on: Streptococcus pyogenes N.Y.5
[4] = tested on: Staphylococcus aureus 0127*; settings: Staphylococcus aureus
[5] = tested on: Staphylococcus aureus MS353
[6] = tested on: Streptococcus faecalis 1501; settings: Enterococcus faecalis
[7] = tested on: Staphylococcus aureus MS353 A0*; settings: * clinical isolate, macrolide-resistant bacteria A group
[8] = tested on: Corynebacterium diphtheriae P.Y.8
[9] = tested on: Escherichia coli NIHJ-JC2; settings: NIHJJC2
Shigella sonnei E33 = tested on: Shigella sonnei E33
Serratia marcescens = tested on: Serratia marcescens
[10] = tested on: Streptococcus agalaactiae 1020
[11] = tested on: Salmonella enteritidis Gaertner; settings: Salmonella enterica
[12] = tested on: Micrococcus flavus ATCC 10240; settings: ATCC10240
Sarcina lutea ATCC 9341 = settings: Micrococcus luteus, ATCC9341
[13] = tested on: Staphylococcus aureus ATCC 6538P; settings: ATCC6538P
[14] = tested on: Klebsiella pneumoniae ATCC 10031; settings: ATCC10031
[15] = tested on: Shigella flexineri type 3a; settings: TYPE3A
[16] = tested on: Staphylococcus aureus MS353 C36; settings: MS353C36
[17] = tested on: Bacillus subtilis ATCC 6633; settings: ATCC6633
[18] = tested on: Staphylococcus epidermidis sp-al-1; settings: SPAL1
Proteus vulgaris OX19 = tested on: Proteus vulgaris OX19
Escherichia coli B = tested on: Escherichia coli B
Salmonella typhosa H901 = settings: Salmonella enterica
[19] = tested on: Streptococcus pyogenes 1022*; settings: Streptococcus pyogenes
[20] = Salmonella typhosa H901, read-out: MIC
[21] = Pseudomonas aeruginosa IAM 1095, read-out: MIC
[22] = Streptococcus faecalis 1501, read-out: MIC
[23] = Escherichia coli NIHJ-JC2, read-out: MIC
[24] = Streptococcus agalaactiae 1020, read-out: MIC
[25] = Salmonella enteritidis Gaertner, read-out: MIC
[26] = Micrococcus flavus ATCC 10240, read-out: MIC
[27] = Sarcina lutea ATCC 9341, read-out: MIC
[28] = Klebsiella pneumoniae ATCC 10031, read-out: MIC
[29] = Bacillus subtilis ATCC 6633, read-out: MIC
[30] = Staphylococcus epidermidis sp-al-1, read-out: MIC
[31] = Escherichia coli B, read-out: MIC

Structure (SMILES)	MIC [2] [µg/mL]	MIC [3] [µg/mL]	MIC [4] [µg/mL]	MIC [5] [µg/mL]	MIC [7] [µg/mL]	MIC (Shigella sonnei E33) [µg/mL]	MIC [13] [µg/mL]	MIC [15] [µg/mL]	MIC [16] [µg/mL]	MIC [1, 21] [µg/mL]	MIC [6, 22] [µg/mL]	MIC [9, 23] [µg/mL]	MIC [19] [µg/mL]	MIC (Serratia marcescens; read-out: MIC) [µg/mL]	MIC [10, 24] [µg/mL]	MIC [11, 25] [µg/mL]	MIC [12, 26] [µg/mL]	MIC (Sarcina lutea ATCC 9341; [27]) [µg/mL]	MIC [14, 28] [µg/mL]	MIC [17, 29] [µg/mL]	also measured
CCC1OC(=O)CC(OC(=O)Cc2ccccc2)C(C)C(OC2OC(C)C(O)C(N(C)C)C2O)C(CC=O)CC(C)C(=O)C=CC(C)=CC1COC1OC(C)CC(OC)C1OC (stereo not drawn) [Example 6, 3-O-phenylacetyl-4"-deoxydesmycosin]	> 100	0.1 (≈ 0.114 µM)	> 100	0.2 (≈ 0.229 µM)	> 100	> 100	0.1 (≈ 0.114 µM)	50 (≈ 57.2 µM)	0.1 (≈ 0.114 µM)	–	–	–	–	–	–	–	–	–	–	–	MIC ([1]; Pseudomonas aeruginosa): > 100 µg/mL; MIC [6]; 1501: 0.4 µg/mL (≈ 0.458 µM); MIC [8]: ≤ 0.05 µg/mL; MIC ([9]; Escherichia coli): > 100 µg/mL; MIC (Serratia marcescens): > 100 µg/mL; MIC ([10]; Streptococcus, 1020): 0.1 µg/mL (≈ 0.114 µM); MIC ([11]; ENTERITIDIS): > 100 µg/mL; MIC ([12]; Micrococcus flavus): ≤ 0.05 µg/mL; MIC (Sarcina lutea ATCC 9341): ≤ 0.05 µg/mL; MIC ([14]; Klebsiella pneumoniae): 25 µg/mL (≈ 28.6 µM); MIC ([17]; Bacillus subtilis): 0.1 µg/mL (≈ 0.114 µM); MIC ([18]; Staphylococcus epidermidis): ≤ 0.05 µg/mL; MIC (Proteus vulgaris OX19): 50 µg/mL (≈ 57.2 µM); MIC (Escherichia coli B; Escherichia coli): > 100 µg/mL; MIC (Salmonella typhosa H901; [20]): > 100 µg/mL
CCC1OC(=O)CC(OC(C)=O)C(C)C(OC2OC(C)C(O)C(N(C)C)C2O)C(C)CC(C)C(=O)C=CC(C)=CC1COC1OC(C)CC(OC)C1OC (stereo not drawn) [Example 7, 3-O-acetyl-19-deformyl-4"-deoxydesmycosin]	> 100	0.1 (≈ 0.13 µM)	> 100	0.2 (≈ 0.26 µM)	> 100	> 100	0.4 (≈ 0.52 µM)	> 100	0.2 (≈ 0.26 µM)	> 100	3.1 (≈ 4.03 µM)	> 100	> 100	> 100	0.8 (≈ 1.04 µM)	> 100	≤ 0.05	≤ 0.05	25 (≈ 32.5 µM)	0.1 (≈ 0.13 µM)	MIC [18, 30]: 0.1 µg/mL (≈ 0.13 µM); MIC (Proteus vulgaris OX19; read-out: MIC): 100 µg/mL (≈ 130 µM); MIC (Escherichia coli B; [31]): > 100 µg/mL; MIC (Salmonella typhosa H901; TYPHOSA): > 100 µg/mL
CCC(=O)OC1CC(=O)OC(CC)C(COC2OC(C)CC(OC)C2OC)C=C(C)C=CC(=O)C(C)CC(C)C(OC2OC(C)C(O)C(N(C)C)C2O)C1C (stereo not drawn) [Example 8, 3-O-propionyl-19-deformyl-4"-deoxydesmycosin]	> 100	0.1 (≈ 0.128 µM)	> 100	0.4 (≈ 0.51 µM)	> 100	> 100	0.4 (≈ 0.51 µM)	100 (≈ 128 µM)	0.2 (≈ 0.255 µM)	> 100	3.1 (≈ 3.95 µM)	> 100	> 100	> 100	0.4 (≈ 0.51 µM)	> 100	≤ 0.05	≤ 0.05	12.5 (≈ 15.9 µM)	0.1 (≈ 0.128 µM)	MIC [18, 30]: 0.1 µg/mL (≈ 0.128 µM); MIC (Proteus vulgaris OX19; read-out: MIC): 100 µg/mL (≈ 128 µM); MIC (Escherichia coli B; [31]): 100 µg/mL (≈ 128 µM); MIC (Salmonella typhosa H901; TYPHOSA): > 100 µg/mL
CCC1OC(=O)CC(OC(=O)c2ccccc2)C(C)C(OC2OC(C)C(O)C(N(C)C)C2O)C(C)CC(C)C(=O)C=CC(C)=CC1COC1OC(C)CC(OC)C1OC (stereo not drawn) [Example 9, 3-O-benzoyl-19-deformyl-4"-deoxydesmycosin]	> 100	≤ 0.05	> 100	0.2 (≈ 0.24 µM)	> 100	> 100	0.2 (≈ 0.24 µM)	> 100	0.1 (≈ 0.12 µM)	> 100	1.6 (≈ 1.92 µM)	> 100	> 100	> 100	0.2 (≈ 0.24 µM)	> 100	≤ 0.05	≤ 0.05	25 (≈ 30 µM)	0.2 (≈ 0.24 µM)	MIC [18, 30]: ≤ 0.05 µg/mL; MIC (Proteus vulgaris OX19; read-out: MIC): 100 µg/mL (≈ 120 µM); MIC (Escherichia coli B; [31]): > 100 µg/mL; MIC (Salmonella typhosa H901; TYPHOSA): > 100 µg/mL
CCC1OC(=O)CC(OC(=O)Cc2ccccc2)C(C)C(OC2OC(C)C(O)C(N(C)C)C2O)C(C)CC(C)C(=O)C=CC(C)=CC1COC1OC(C)CC(OC)C1OC (stereo not drawn) [Example 10, 3-O-phenylacetyl-19-deformyl-4"-deoxydesmycosin]	> 100	≤ 0.05	> 100	0.1 (≈ 0.118 µM)	> 100	> 100	0.1 (≈ 0.118 µM)	25 (≈ 29.5 µM)	0.1 (≈ 0.118 µM)	–	–	–	–	–	–	–	–	–	–	–	MIC ([1]; Pseudomonas aeruginosa): > 100 µg/mL; MIC [6]; 1501: 3.1 µg/mL (≈ 3.66 µM); MIC [8]: ≤ 0.05 µg/mL; MIC ([9]; Escherichia coli): > 100 µg/mL; MIC (Serratia marcescens): > 100 µg/mL; MIC ([10]; Streptococcus, 1020): 0.4 µg/mL (≈ 0.473 µM); MIC ([11]; ENTERITIDIS): > 100 µg/mL; MIC ([12]; Micrococcus flavus): ≤ 0.05 µg/mL; MIC (Sarcina lutea ATCC 9341): ≤ 0.05 µg/mL; MIC ([14]; Klebsiella pneumoniae): 12.5 µg/mL (≈ 14.8 µM); MIC ([17]; Bacillus subtilis): 0.2 µg/mL (≈ 0.236 µM); MIC ([18]; Staphylococcus epidermidis): ≤ 0.05 µg/mL; MIC (Proteus vulgaris OX19): 100 µg/mL (≈ 118 µM); MIC (Escherichia coli B; Escherichia coli): > 100 µg/mL; MIC (Salmonella typhosa H901; [20]): > 100 µg/mL
